Test results taken from patent US10597388B2, “Pyridazinone herbicides” (FMC CORPORATION, priority 2014, dated 2020).

Legend:
Experiment in all cases: Test E greenhouse herbicide test, pre- and postemergence
Format in all cases: in vivo
[1] = tested on: ragweed (common ragweed, Ambrosia elatior); conditions: Preemergence
Method in brief: (§1)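 Greenhouse pots; preemergence on silt loam, postemergence on plants 1- to 4-leaf (2 to 18 cm) grown in peat, vermiculite and nutrient medium. Test chemicals formulated in non-phytotoxic solvent with surfactant. Ratings taken after 14 to 21 d.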

[2] = tested on: arrowleaf sida (Sida rhombifolia)
Method in brief: as §1

[3] = tested on: barnyardgrass (Echinochloa crus-galli)
Method in brief: as §1

[4] = tested on: Italian ryegrass (Lolium multiflorum)
Method in brief: as §1

[5] = tested on: beggarticks (hairy beggarticks, Bidens pilosa)
Method in brief: as §1

[6] = tested on: field bindweed (Convolvulus arvensis)
Method in brief: as §1

[7] = tested on: momingglory (Ipomoea coccinea); conditions: Preemergence
Method in brief: as §1

[8] = tested on: goosegrass (Eleusine indica); conditions: Preemergence
Method in brief: as §1

[9] = tested on: nightshade (eastern black nightshade, Solanum ptycanthum); conditions: Preemergence
Method in brief: as §1

[10] = tested on: surinam grass (Brachiaria decumbens); conditions: Preemergence
Method in brief: as §1

[11] = tested on: waterhemp (common waterhemp, Amaranthus rudis)
Method in brief: as §1

[12] = tested on: horseweed (Conyza canadensis); conditions: Preemergence
Method in brief: as §1

[13] = 62 g ai/ha, scale 0 to 100 (0 no effect, 100 complete control)
[14] = 125 g ai/ha, scale 0 to 100 (0 no effect, 100 complete control)
[15] = 16 g ai/ha, scale 0 to 100, 0 no effect, 100 complete control
[16] = 31 g ai/ha, scale 0 to 100, 0 no effect, 100 complete control
[17] = 250 g ai/ha, visual, scale 0 no effect to 100 complete control
[18] = 62 g ai/ha, Postemergence, scale 0 to 100 (0 no effect, 100 complete control)
[19] = 62 g ai/ha, Preemergence, scale 0 to 100 (0 no effect, 100 complete control)
[20] = 125 g ai/ha, Postemergence, scale 0 to 100 (0 no effect, 100 complete control)
[21] = 250 g ai/ha, Postemergence, scale 0 to 100 (0 no effect, 100 complete control)
[22] = Postemergence, 16 g ai/ha, visual, scale 0 no effect to 100 complete control
[23] = Postemergence, 31 g ai/ha, visual, scale 0 no effect to 100 complete control
[24] = Preemergence, 16 g ai/ha, scale 0 to 100, 0 no effect, 100 complete control
[25] = Preemergence, 31 g ai/ha, scale 0 to 100, 0 no effect, 100 complete control
[26] = Preemergence, 125 g ai/ha, visual, scale 0 no effect to 100 complete control
[27] = Preemergence, 250 g ai/ha, visual, scale 0 no effect to 100 complete control
[28] = 125 g ai/ha, Preemergence, scale 0 to 100 (0 no effect, 100 complete control)
[29] = 125 g ai/ha, visual, scale 0 no effect to 100 complete control

Cc1cc(C)c2sc(C)c(-c3c(O)c(C)nn(C)c3=O)c2c1 [Compound 2, 5-hydroxy-2,6-dimethyl-4-(2,5,7-trimethylbenzo[b]thien-3-yl)-3(2H)-pyridazinone]
Plant response rating, Ragweed [1, 13]: 75 | Plant response rating, Ragweed [1, 14]: 98 | Plant response rating, Ragweed [1, 15]: 20 | Plant response rating, Ragweed [1, 16]: 35 | Plant response rating, Ragweed [1, 17]: 98 | Plant response rating, Arrowleaf Sida [2, 18]: 30 | Plant response rating, Arrowleaf Sida [2, 19]: 0 | Plant response rating, Arrowleaf Sida [2, 20]: 35 | Plant response rating, Arrowleaf Sida [2, 21]: 40 | Plant response rating, Arrowleaf Sida [2, 22]: 0 | Plant response rating, Arrowleaf Sida [2, 23]: 25 | Plant response rating, Arrowleaf Sida [2, 24]: 0 | Plant response rating, Arrowleaf Sida [2, 25]: 0 | Plant response rating, Arrowleaf Sida [2, 26]: 0 | Plant response rating, Arrowleaf Sida [2, 27]: 5 | Plant response rating, Barnyardgrass [3, 18]: 25 | Plant response rating, Barnyardgrass [3, 19]: 0 | Plant response rating, Barnyardgrass [3, 20]: 30 | Plant response rating, Barnyardgrass [3, 21]: 35 | Plant response rating, Barnyardgrass [3, 22]: 20 | Plant response rating, Barnyardgrass [3, 23]: 20 | Plant response rating, Barnyardgrass [3, 24]: 0 | Plant response rating, Barnyardgrass [3, 25]: 0 | Plant response rating, Barnyardgrass [3, 26]: 25 | Plant response rating, Barnyardgrass [3, 27]: 70 | Plant response rating, Ryegrass, Italian [4, 18]: 50 | Plant response rating, Ryegrass, Italian [4, 19]: 98 | Plant response rating, Ryegrass, Italian [4, 20]: 65 | Plant response rating, Ryegrass, Italian [4, 28]: 100 | Plant response rating, Ryegrass, Italian [4, 21]: 75 | Plant response rating, Ryegrass, Italian [4, 22]: 20 | Plant response rating, Ryegrass, Italian [4, 23]: 30 | Plant response rating, Ryegrass, Italian [4, 24]: 50 | Plant response rating, Ryegrass, Italian [4, 25]: 95 | Plant response rating, Ryegrass, Italian [4, 27]: 100 | Plant response rating, Beggarticks [5, 18]: 100 | Plant response rating, Beggarticks [5, 19]: 100 | Plant response rating, Beggarticks [5, 20]: 100 | Plant response rating, Beggarticks [5, 21]: 100 | Plant response rating, Beggarticks [5, 22]: 85 | Plant response rating, Beggarticks [5, 23]: 95 | Plant response rating, Beggarticks [5, 24]: 90 | Plant response rating, Beggarticks [5, 25]: 100 | Plant response rating, Beggarticks [5, 26]: 100 | Plant response rating, Beggarticks [5, 27]: 100 | Plant response rating, Field Bindweed [6, 18]: 65 | Plant response rating, Field Bindweed [6, 19]: 15 | Plant response rating, Field Bindweed [6, 20]: 75 | Plant response rating, Field Bindweed [6, 21]: 80 | Plant response rating, Field Bindweed [6, 22]: 60 | Plant response rating, Field Bindweed [6, 23]: 60 | Plant response rating, Field Bindweed [6, 24]: 0 | Plant response rating, Field Bindweed [6, 25]: 0 | Plant response rating, Field Bindweed [6, 26]: 35 | Plant response rating, Field Bindweed [6, 27]: 70 | Plant response rating, Morningglory [7, 13]: 90 | Plant response rating, Morningglory [7, 14]: 100 | Plant response rating, Morningglory [7, 15]: 0 | Plant response rating, Morningglory [7, 16]: 75 | Plant response rating, Morningglory [7, 17]: 100 | Plant response rating, Goosegrass [8, 13]: 5 | Plant response rating, Goosegrass [8, 15]: 0 | Plant response rating, Goosegrass [8, 16]: 0 | Plant response rating, Goosegrass [8, 29]: 25 | Plant response rating, Goosegrass [8, 17]: 25 | Plant response rating, Nightshade [9, 13]: 98 | Plant response rating, Nightshade [9, 14]: 98 | Plant response rating, Nightshade [9, 15]: 35 | Plant response rating, Nightshade [9, 16]: 75 | Plant response rating, Nightshade [9, 17]: 100 | Plant response rating, Surinam Grass [10, 13]: 75 | Plant response rating, Surinam Grass [10, 14]: 90 | Plant response rating, Surinam Grass [10, 15]: 5 | Plant response rating, Surinam Grass [10, 16]: 35 | Plant response rating, Surinam Grass [10, 17]: 95 | Plant response rating, Waterhemp [11, 18]: 75 | Plant response rating, Waterhemp [11, 19]: 80 | Plant response rating, Waterhemp [11, 20]: 75 | Plant response rating, Waterhemp [11, 28]: 85 | Plant response rating, Waterhemp [11, 21]: 90 | Plant response rating, Waterhemp [11, 22]: 70 | Plant response rating, Waterhemp [11, 23]: 70 | Plant response rating, Waterhemp [11, 24]: 65 | Plant response rating, Waterhemp [11, 25]: 65 | Plant response rating, Waterhemp [11, 27]: 98

Cc1cc(C)c2ccccc2c1-c1c(O)c(C)nn(C)c1=O [Compound 21]
Plant response rating, Ragweed [1, 13]: 98 | Plant response rating, Ragweed [1, 14]: 100 | Plant response rating, Ragweed [1, 16]: 95 | Plant response rating, Arrowleaf Sida [2, 19]: 0 | Plant response rating, Arrowleaf Sida [2, 25]: 0 | Plant response rating, Arrowleaf Sida [2, 26]: 50 | Plant response rating, Barnyardgrass [3, 19]: 70 | Plant response rating, Barnyardgrass [3, 25]: 40 | Plant response rating, Barnyardgrass [3, 26]: 90 | Plant response rating, Horseweed [12, 13]: 100 | Plant response rating, Horseweed [12, 16]: 100 | Plant response rating, Horseweed [12, 29]: 100 | Plant response rating, Ryegrass, Italian [4, 19]: 100 | Plant response rating, Ryegrass, Italian [4, 28]: 100 | Plant response rating, Ryegrass, Italian [4, 25]: 100 | Plant response rating, Beggarticks [5, 19]: 100 | Plant response rating, Beggarticks [5, 25]: 100 | Plant response rating, Beggarticks [5, 26]: 100 | Plant response rating, Field Bindweed [6, 19]: 95 | Plant response rating, Field Bindweed [6, 25]: 35 | Plant response rating, Field Bindweed [6, 26]: 98 | Plant response rating, Morningglory [7, 13]: 98 | Plant response rating, Morningglory [7, 14]: 100 | Plant response rating, Morningglory [7, 16]: 90 | Plant response rating, Goosegrass [8, 13]: 95 | Plant response rating, Goosegrass [8, 16]: 90 | Plant response rating, Goosegrass [8, 29]: 95 | Plant response rating, Surinam Grass [10, 13]: 100 | Plant response rating, Surinam Grass [10, 14]: 100 | Plant response rating, Surinam Grass [10, 16]: 95 | Plant response rating, Waterhemp [11, 19]: 95 | Plant response rating, Waterhemp [11, 28]: 100 | Plant response rating, Waterhemp [11, 25]: 95
